Data on one compound can be found in article PMC11217349, “Development of Nurr1 agonists from amodiaquine by scaffold hopping and fragment growing” (Communications Chemistry, 2024).

“And” between values parts separate entries of the source, which are not always exact repeats. Equal entries are not always repeated.

The series relates to HBEC-5i human brain endothelial cells. The series is described as follows: In vitro blood-brain-barrier model. Format: in vitro ADME. The note with it: HBEC-5i trans-well, 10 µM, 60 min. The procedure:
Permeation of test compounds through a human brain endothelial cell barrier was evaluated using the Corning Costar 3470 Transwell Plate system (0.4 μm pore diameter with 6.5 mm inserts) and HBEC-5i cells (ATCC, CRL-3245). Filter inserts were coated one day before seeding with 50 μL 0.01% rat-tail collagen type I ([…], Sigma-Aldrich) in PBS. 60,000 HBEC-5i cells in 100 μL HBEC-5i-Medium (DMEM/F12 with 10% FCS and 40 μg/mL ECGS) were seeded after aspiration of the coating-supernatant in each insert with 600 μL HBEC-5i-Medium in each receiver well. After 24 h incubation at 37 °C with 5% CO2, the medium was exchanged to 600 μL T98G cell supernatant in receiver wells and 100 μL fresh HBEC-5i-Medium in inserts. The medium exchange was repeated every second day. On day 7 after seeding, the medium in the receiver wells was replaced by 600 μL Hank's balanced salt solution (HBSS) containing 10 mM HEPES and 0.1% DMSO and 100 μL test compound mixtures (antipyrine and test compound; each at 10 μM) in HBSS containing 10 mM HEPES and 0.1% DMSO were added to inserts. After 60 min incubation, 100 μL samples were taken from the receiver wells and diluted in 400 μL (75%/25% A/B; A=Formic acid 0.1% in water; B = Acetonitrile). Test compound concentrations in the samples were determined by LC-MS/MS on an API-3200-QTrap (Sciex) equipped with an Agilent Technologies 1100 series setup including a binary pump […]), and a Shimadzu […] autosampler under the control of Analyst 1.6 (Sciex). […] B) for 6 min going to (50%:50%) after 8 min. 5 μL of aspirated supernatant diluted in mobile phase starting conditions was loaded onto the column, separated at a flow rate of 400 μL/min, and quantified per Area of MRM (multiple reaction monitoring).

Consider `Cc1nc2c(Cl)cccn2c1NC(=O)c1ccc(-c2ccc(N(C)C)cc2)o1` [Compound 36, N-(8-Chloro-2-methylimidazo[1,2-a]pyridin-3-yl)-5-(4-(dimethylamino)phenyl)furan-2-carboxamide], for which the “logPe (BBB)” value is -4.64 and -4.729 and -4.725 and -4.687 and -4.681 and -4.749.
